Measurements published in the supplement of paper PMC10307832.

Legend:
Assay in all cases: relative viability (nuclei count vs DMSO), 5 days (fraction); higher = more cells survive
Ponatinib + Tozasertib = compound: Cc1ccc(C(=O)Nc2ccc(CN3CCN(C)CC3)c(C(F)(F)F)c2)cc1C#Cc1cnc2cccnn12 [Ponatinib] + Cc1cc(Nc2cc(N3CCN(C)CC3)nc(Sc3ccc(NC(=O)C4CC4)cc3)n2)n[nH]1 [Tozasertib] (partner 0.1 µM)
Procedure, shortened: (§1)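 The day after seeding in 1536-well plates, lung cancer cell lines were treated by pin tool with a single drug, or with a fixed anchor-drug dose together with five library-drug doses (not always all listed) in √10 steps. After 5 days, a combined fix-and-stain solution (final 0.05% Triton X-100, 1% formaldehyde, 1 ug/ml Hoechst) was added. Nuclei counted on 4× images gave relative viability as treated counts over vehicle counts, reported as the median of duplicate plates.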

Pazopanib + Crizotinib = compound: Cc1ccc(Nc2nccc(N(C)c3ccc4c(C)n(C)nc4c3)n2)cc1S(N)(=O)=O [Pazopanib] + C[C@@H](Oc1cc(-c2cnn(C3CCNCC3)c2)cnc1N)c1c(Cl)ccc(F)c1Cl [Crizotinib] (partner 1 µM)
Procedure, shortened: as §1

Pazopanib + Pemetrexed = compound: Cc1ccc(Nc2nccc(N(C)c3ccc4c(C)n(C)nc4c3)n2)cc1S(N)(=O)=O [Pazopanib] + Nc1nc2[nH]cc(CCc3ccc(C(=O)N[C@@H](CCC(=O)O)C(=O)O)cc3)c2c(=O)[nH]1 [Pemetrexed] (partner 0.2 µM)
Procedure, shortened: as §1

Pazopanib + Navitoclax = compound: Cc1ccc(Nc2nccc(N(C)c3ccc4c(C)n(C)nc4c3)n2)cc1S(N)(=O)=O [Pazopanib] + CC1(C)CCC(c2ccc(Cl)cc2)=C(CN2CCN(c3ccc(C(=O)NS(=O)(=O)c4ccc(N[C@H](CCN5CCOCC5)CSc5ccccc5)c(S(=O)(=O)C(F)(F)F)c4)cc3)CC2)C1 [Navitoclax] (partner 0.5 µM)
Procedure, shortened: as §1

| Cell Line | relative viability (Ponatinib + Tozasertib; first compound 0.002 µM) | relative viability (Ponatinib + Tozasertib; first compound 0.006325 µM) | relative viability (Ponatinib + Tozasertib; first compound 0.06325 µM) | relative viability (Ponatinib + Tozasertib; first compound 0.2 µM) | relative viability (Pazopanib + Crizotinib; first compound 0.01 µM) | relative viability (Pazopanib + Crizotinib; first compound 0.03162 µM) | relative viability (Pazopanib + Crizotinib; first compound 0.1 µM) | relative viability (Pazopanib + Crizotinib; first compound 0.3162 µM) | relative viability (Pazopanib + Crizotinib; first compound 1 µM) | relative viability (Pazopanib + Pemetrexed; first compound 0.01 µM) | relative viability (Pazopanib + Pemetrexed; first compound 0.03162 µM) | relative viability (Pazopanib + Pemetrexed; first compound 0.1 µM) | relative viability (Pazopanib + Pemetrexed; first compound 0.3162 µM) | relative viability (Pazopanib + Pemetrexed; first compound 1 µM) | relative viability (Pazopanib + Navitoclax; first compound 0.01 µM) | relative viability (Pazopanib + Navitoclax; first compound 0.03162 µM) | relative viability (Pazopanib + Navitoclax; first compound 0.1 µM) | relative viability (Pazopanib + Navitoclax; first compound 0.3162 µM) | relative viability (Pazopanib + Navitoclax; first compound 1 µM) |
| --- | --- | --- | --- | --- | --- | --- | --- | --- | --- | --- | --- | --- | --- | --- | --- | --- | --- | --- | --- |
| LCLC-103H | 0.527 | 0.534 | 0.522 | 0.404 | 0.968 | 1.03 | 1.14 | 1.06 | 1.24 | 0.447 | 0.477 | 0.399 | 0.494 | 0.491 |  |  |  |  |  |
| Calu-6 |  |  |  |  | 0.853 | 0.821 | 0.81 | 0.764 | 0.762 |  |  |  |  |  | 0.87 | 0.863 | 0.848 | 0.768 | 0.842 |
| NCI-H1648 | 0.464 | 0.361 | 0.577 | 0.283 |  |  |  |  |  |  |  | 0.662 | 0.77 | 0.742 |  |  |  |  |  |
| EBC-1 |  |  |  |  | 0.224 | 0.202 | 0.197 | 0.184 | 0.187 |  |  |  |  |  | 0.364 | 0.436 | 0.454 | 0.442 | 0.427 |
| NCI-H1299 |  |  |  |  | 0.983 | 0.913 | 0.921 | 0.969 | 0.892 |  |  |  |  |  | 1.04 | 1.03 | 1.03 | 1.1 | 1.02 |
| NCI-H2342 | 0.489 | 0.639 | 0.403 | 0.591 |  |  |  |  |  | 0.599 | 0.756 | 0.842 | 0.75 | 0.655 |  |  |  |  |  |
| IA-LM |  |  |  |  | 0.93 |  | 0.938 | 0.843 | 0.659 |  |  |  |  |  | 0.815 | 0.782 | 0.778 | 0.792 | 0.625 |
| NCI-H650 | 0.685 | 0.707 | 0.712 | 0.618 | 0.755 | 0.907 | 0.608 | 0.784 | 0.603 | 0.871 | 0.922 | 0.863 | 0.884 | 0.798 |  |  |  |  |  |
| NCI-H1395 | 0.636 | 0.747 | 0.768 | 0.701 |  |  |  |  |  | 0.744 | 0.83 | 0.886 | 0.938 | 0.932 | 1.15 | 1.25 | 1.24 | 1.33 | 1.28 |
| NCI-H358 | 0.0953 | 0.101 | 0.0969 | 0.165 | 0.722 | 0.688 | 0.518 | 0.622 | 0.478 | 0.179 | 0.167 | 0.168 | 0.165 | 0.161 |  |  |  |  |  |
| NCI-H661 | 0.36 | 0.345 | 0.351 | 0.368 | 1.13 | 0.976 | 1.03 | 0.998 | 0.987 | 0.863 | 0.938 | 0.969 | 0.955 | 0.861 |  |  |  |  |  |
| NCI-H727 | 0.607 | 0.593 | 0.531 | 0.669 | 0.98 | 0.787 | 1.15 | 0.831 | 1.08 |  |  |  |  |  | 0.506 | 0.417 | 0.656 | 0.513 | 0.572 |
